Reference: patent US10709720B2, “Human milk oligosaccharides for modulating inflammation” (priority 2010, dated 2020)
Values after ≈ are worked out from the molar mass of the structure shown. “Also recorded” adds a separate entry of the source.

Tests used:
[1] = system: monocyte-derived cytokines; test: monocyte-derived cytokines in supernatants of HMO-treated peripheral blood mononuclear cells (Example 39); assay type: cell-based, human
Procedure: (§1) Specifically, either 3′SL or 6′SL is added, at concentrations of 0.1 mg/mL, 0.2 mg/mL, or 0.5 mg/mL to fresh peripheral blood mononuclear cells and incubated at 37° C. in 5% CO2 to pretreat the cells for approximately 24 hours. LNnT is added, at concentrations of 0.1 mg/mL, 0.2 mg/mL, or 1 mg/mL to fresh peripheral blood mononuclear cells and incubated at 37° C. in 5% CO2 to pretreat the cells for approximately 24 hours. Lactose is included as a carbohydrate control. Matched endotoxin unit concentration controls are included to allow differentiation of ingredient effects from inherent low levels of endotoxin. Some variables are then incubated with RSV at a multiplicity of infection (MOI) of 0.1 for approximately 1 hour at 37° C. in 5% in CO2. Uninfected control variables are incubated with medium for approximately 1 hour at 37° C. in 5% CO2. After approximately one hour, fresh medium alone, or fresh medium containing the appropriate concentration of 3′SL, 6′SL, LNnT, lactose, or endotoxin is added to the appropriate tubes and the cells are incubated for 48 hours at 37° C. in 5% CO2. Supernatants are collected at 24 and 48 hours post-infection.
(§2) Cytokines are measured in supernatants for each variable at 24 and 48 hours to assess the effects of HMOs on the early immune response to RSV. Cytokines are measured using custom Bio-Plex Human cytokine kits from Bio-Rad. Results for interferon-inducible protein 10 (IP-10, also known as CXCL 10) are shown in FIGS. 3 and 4 for 3′SL and 6′SL, and in FIGS. 5 and 6 for LNnT. IP-10 is a CXC chemokine that attracts, binds to and activates the CXCR3 receptor on natural killer cells and memory T cells. IP-10 is expressed by monocytes and a number of other cells, and is induced by interferon. A positive correlation exists between RSV clinical disease severity in children (as measured by: length of hospital stay, fever, and number of days supplemental O2 is required) and serum IP-10. Therefore, a decrease in IP-10 signals a decrease in severity of RSV disease experienced.

[2] = system: interferon-inducible protein 10 (IP-10); test: IP-10 in supernatants of HMO-pretreated, RSV-infected peripheral blood mononuclear cells (Example 39); assay type: cell-based, human; conditions: for IP-10 in virus-infected variables: 24 hour pretreatment, both donors, 24 and 48 hours post-infection; for IP-10 level reached compared with uninfected controls / effectiveness at dampening virus-induced inflammation (decrease in IP-10) compared with 3′SL: RSV-infected PBMCs; for reducing inflammation caused by RSV: pretreatment for 24 hours
Procedure: as §1, §2

[3] = system: respiratory syncytial virus (RSV); test: in vitro inhibition of viral infectivity, co-incubation of virus with HMO (Example 36); assay type: cell-based; conditions: virus dose about 500-1,000 units/mL; HMOs added at 1 mg/mL or 10 mg/mL
Procedure: In this Example, the effect of purified human milk oligosaccharides (HMO) on in vitro inhibition of viral infectivity is analyzed.
Samples are prepared by co-incubation of a uniform virus dose of from about 500 units/mL to about 1,000 units/mL of one of three respiratory viruses: (1) respiratory syncytial virus (RSV); (2) human parainfluenza virus (HPIV3); or (3) H1N1 influenza virus with one of the following HMOs: (1) 3′-sialyllactose (3′SL); (2) 6′-sialyllactose (6′SL); (3) 3′-fucosyllactose (3′FL); (4) 2′-fucosyllactose (2′FL); (5) lacto-N-neotetraose (LNnT); or (6) sialic acid (SA). The HMOs are added at concentrations of either 1 mg/mL or 10 mg/mL.

interleukin 10 (IL-10) = test: IL-10 in supernatants of HMO-pretreated peripheral blood mononuclear cells with or without RSV (Example 39); assay type: cell-based, human; conditions: in the presence or absence of RSV
Procedure: as §1, with “After approximately one hour, fresh medium alone, or fresh medium containing the appropriate concentration of 3′SL, 6′SL, LNnT, lactose, or endotoxin is added to the appropriate tubes and the cells are incubated for 48 hours at 37° C. in 5% CO2. Supernatants are collected at 24 and 48 hours post-infection.” left out
Cytokines are measured in supernatants for each variable at 24 and 48 hours to assess the effects of HMOs on the early immune response to RSV. Cytokines are measured using custom Bio-Plex Human cytokine kits from Bio-Rad. […] A positive correlation exists between RSV clinical disease severity in children (as measured by: length of hospital stay, fever, and number of days supplemental O2 is required) and serum IP-10. […]

H1N1 influenza virus [4] = test: microbe, parasite or virus in culture; assay type: cell-based
[5] = system: human parainfluenza virus (HPIV3); test: microbe, parasite or virus in culture; assay type: cell-based; conditions: virus dose about 500-1,000 units/mL, HMOs added at 1 mg/mL or 10 mg/mL
Interleukin 8 (IL-8) = test: IL-8 in supernatants of PBMCs treated with 3′SL and/or 6′SL with or without RSV (Example 40); assay type: cell-based, human; conditions: in the presence of RSV (MOI 0.1); individual 0.1-0.5 mg/mL, combinations 0.2-1.0 mg/mL total; FIG. 11
Procedure: In this example, the combination of 3′SL and 6′SL to reduce the inflammatory cytokine IL-8 in vitro is analyzed.
Specifically, 3′SL and 6′SL are added individually at concentrations of 0.1 mg/mL, 0.2 mg/mL, or 0.5 mg/mL or in combination (Combo 1=1 part 3′SL to 1 part 6′SL; Combo 2=1 part 3′SL to 2 parts 6′SL), at total concentrations of 0.2 mg/mL, 0.4 mg/mL, or 1.0 mg/mL to fresh peripheral blood mononuclear cells (PBMCs) and incubated at 37° C. in 5% CO2 to pretreat the cells for approximately 24 hours. Lactose is included as a carbohydrate control. Matched endotoxin unit concentration controls are included to allow differentiation of ingredient effects from inherent low levels of endotoxin. After approximately 24 hours, some variables are then incubated with RSV at a multiplicity of infection (MOI) of 0.1 for approximately 1 hour at 37° C. in 5% in CO2. Uninfected control variables are incubated with medium for approximately 1 hour at 37° C. in 5% CO2. […] Cytokines are measured in supernatants for each variable at 24 and 48 hours to assess the effects of the 3′SL and/or the 6′SL on the early immune response to RSV. Cytokines are measured using custom Bio-Plex Human cytokine kits from Bio-Rad. […]

H1N1 influenza virus [6] = test: organism not typed; assay type: cell-based; conditions: HMO at 10 mg/mL, MDCK cells, FIG. 1
[7] = in the presence or absence of the virus
[8] = virus dose about 500-1,000 units/mL, HMOs added at 1 mg/mL or 10 mg/mL

Row | Compound | immunomodulation: induces and/or modifies production of monocyte-derived cytokines [1, 7] | IP-10 in virus-infected variables ([2]; RSV MOI 0.1) | IP-10 level reached compared with uninfected controls [2] | effectiveness at dampening virus-induced inflammation (decrease in IP-10) compared with 3′SL [2] | reducing inflammation caused by RSV [2] | IC50 (mg HMO/mL) RSV [3] | IL-10 concentration (interleukin 10 (IL-10)) | IC50 (mg HMO/mL) H1N1 Influenza (H1N1 influenza virus [4]; [8]) | RSV-induced IP-10, Donor B ([2]; RSV MOI 0.1, 0.1-0.5 mg/mL, Donor B) | RSV-induced IP-10, Donor E ([2]; RSV MOI 0.1, 0.1-0.5 mg/mL, Donor E) | IC50 (mg HMO/mL) HPIV3 [5] | IL-8 concentration with increasing HMO concentration (Interleukin 8 (IL-8)) | anti-viral activity against H1N1 influenza virus (H1N1 influenza virus [4]; HMO at 1 mg/mL) | immunomodulation: induces and/or modifies production of monocyte-derived cytokines ([1]; in the absence of the virus) | inhibition of virus infectivity (H1N1 influenza virus [6]) | IC50 ([5]; Human respirovirus 3, read-out: IC50 (mg HMO/mL) HPIV3) | inhibition at 10000 µg/mL (H1N1 influenza virus [6]; read-out: inhibition of virus infectivity) | IC50 (H1N1 influenza virus [4]; Influenza A virus, H1N1, virus dose about 500-1,000 units/mL, HMOs added at 1 mg/mL or 10 mg/mL, read-out: IC50 (mg HMO/mL) H1N1 Influenza)
1 | CC(=O)N[C@H]1[C@H](O[C@H]2[C@@H](O)[C@@H](CO)O[C@@H](O[C@H]3[C@H](O)[C@@H](O)C(O)O[C@@H]3CO)[C@@H]2O)O[C@H](CO)[C@@H](O[C@@H]2O[C@H](CO)[C@H](O)[C@H](O)[C@H]2O)[C@@H]1O (mixture of isomers) [LNnT, lacto-N-neotetraose] | immunomodulatory | clearly downregulates IP-10 | reduce IP-10 to levels found in uninfected controls | more effective than 3′SL | effective in reducing inflammation caused by RSV | >10 mg HMO/mL | increases IL-10 concentration in a dose-dependent manner | >10 mg HMO/mL |  |  |  |  |  |  |  |  |  | 
2 | CC(=O)N[C@H]1[C@H]([C@H](O)[C@H](O)CO)O[C@@](O[C@H]2[C@@H](O)[C@@H](CO)O[C@@H](O[C@H]3[C@H](O)[C@@H](O)C(O)O[C@@H]3CO)[C@@H]2O)(C(=O)O)C[C@@H]1O (some centres unmarked) [3′SL, 3′-sialyllactose] | immunomodulatory | dampen RSV-induced IP-10 |  |  | effective in reducing inflammation caused by RSV | >10 mg HMO/mL |  | ~5 mg HMO/mL | not effective | downregulates RSV-induced IP-10 | >10 mg HMO/mL | increase IL-8 | inhibited |  |  |  |  | 
3 | CC(=O)N[C@H]1[C@H]([C@H](O)[C@H](O)CO)O[C@@](OC[C@H]2O[C@@H](O[C@H]3[C@H](O)[C@@H](O)[C@H](O)O[C@@H]3CO)[C@H](O)[C@@H](O)[C@H]2O)(C(=O)O)C[C@@H]1O [6′SL, 6′-sialyllactose] |  | clearly downregulates IP-10 | reduce IP-10 to levels found in uninfected controls | more effective at downregulation of IP-10; also recorded: more effective than 3′SL | effective in reducing inflammation caused by RSV | >10 mg HMO/mL | increases interleukin 10 (IL-10) concentration in a dose-dependent manner | ~10 mg HMO/mL |  |  | >10 mg HMO/mL | increase IL-8 |  | immunomodulatory | approximately 60% |  |  | 
4 | CC(=O)N[C@H]1[C@H]([C@H](O)[C@H](O)CO)OC(O)(C(=O)O)C[C@@H]1O (some centres unmarked) [SA, sialic acid] |  |  |  |  |  |  |  |  |  |  |  |  |  |  |  | ~2000 µg/mL (≈ 6.47 mM) | > 90% | ~5000 µg/mL (≈ 16.2 mM)
